US20220257698A1, “ANGIOTENSIN TYPE 2 (AT2) RECEPTOR AGONISTS FOR USE IN THE TREATMENT OF CANCER” (LANTHIOPEP B.V., priority 2019, published 2022)

System: lung carcinoma PDX Lu7433
Test: KcAng(1-7) on growth of lung carcinoma PDX Lu7433 in mice
Format: in vivo, NMRI nu/nu mice (human PDX)
Procedure: In vivo studies were conducted at EPO GmbH Berlin. Large studies (FIG. 1A, 2, 3, 4, 5) comprised 3 groups of 10 mice/group and 5 animals as reserve, as outlined in Table 1. Smaller studies (FIG. 1B, 1C, 1D) comprised 2 groups of mice of 3 mice per group. The animals were allocated to the various treatment groups (e.g. 0.2 μg/kg and 30 μg/kg) with a maximum of 10 animals per group. […] The groups received subcutaneous (s.c.) drug injection (for max. 28 days) as outlined in the Table 1.
NMRI nu/nu mice were used in this study. The animals were female at age of 6 to 8 weeks. The respective PDX tumors were inoculated subcutaneously (s.c.), and the tumors were grown to achieve palpable tumor sizes before start of the respective treatments. The PDX included breast (MaCa4151), colon (Co9689A), head & neck (HN10309), lung (Lu7433) and ovarian (OvCa13329) cancer (Table 2).
Treatment with KcAng(1-7) was started with palpable tumors after the randomization of animals regarding tumor volume. KcAng(1-7) was applied s.c. by daily injections at […] or 30 μg/kg dose for a maximum of 28 days (or earlier as defined by the humane end point for the study).
KcAng(1-7) was prepared as follows: The compounds was suspended in sterile PBS resulting in a clear solution. The remains of this formulation were stored at 4° C.
Tumor growth stimulatory or inhibitory activity of the KcAng(1-7) was evaluated by determination of tumor volumes (TV). During the study, tumor volumes and body weight were measured twice a week, and the ratio of the mean tumor volumes between the compound-treated group and the vehicle-treated group (T/C) was calculated.
Tumor volume=(tumor width)×(tumor width)×(tumor length)+2
T/C=T÷C • T: Mean estimated tumor volume of the compound-treated group • C: Mean estimated tumor volume of the vehicle-treated group

[1] = Gr. B 0.2 μg/kg/d s.c., Day 11 (Meas. 1)
[2] = Gr. B 0.2 μg/kg/d s.c., Day 14 (Meas. 2)
[3] = Gr. B 0.2 μg/kg/d s.c., Day 18 (Meas. 3)
[4] = Gr. B 0.2 μg/kg/d s.c., Day 21 (Meas. 4)
[5] = Gr. B 0.2 μg/kg/d s.c., Day 25 (Meas. 5)
[6] = Gr. B 0.2 μg/kg/d s.c., Day 28 (Meas. 6)
[7] = Gr. C 30 μg/kg/d s.c., Day 11 (Meas. 1)
[8] = Gr. C 30 μg/kg/d s.c., Day 14 (Meas. 2)
[9] = Gr. C 30 μg/kg/d s.c., Day 18 (Meas. 3)
[10] = Gr. C 30 μg/kg/d s.c., Day 21 (Meas. 4)
[11] = Gr. C 30 μg/kg/d s.c., Day 25 (Meas. 5)
[12] = Gr. C 30 μg/kg/d s.c., Day 28 (Meas. 6)

In the case of “Lys-Asp-Arg-Val-Abu/Ala-Ile-His-Abu/Ala (KDRVAIHA; not fully specified; cyclic thioether (Abu/Ala bridge); VARIANT (5)..(5) /replace=“Abu”; VARIANT (8)..(8) /replace=“Abu”; SITE (1)..(8) /note=“Variant residues given in the sequence have no preference with respect to those in the annotations for variant positions”) [KcAng(1-7)]”, the optT/C (0.2 μg/kg) is reported as 68.2%, the optT/C (30 μg/kg) is reported as 71.9% and the “effect on tumor growth” value (0.2 and 30 μg/kg, 19 days) is reported as “moderate but significant decrease in tumor growth”. The “RTV Mean” value [1] was 1, the “RTV Median” value [1] was 1 and the T/C [1] was 100.1%. For the same substance, the “Tumor Vol. Mean” value [1] was 0.112 cm^3, the “Tumor Vol. Median” value [1] was 0.109 cm^3 and the “RTV Mean” value [2] was 1.7. The “RTV Median” value [2] was 1.8, the T/C [2] was 88.4% and the “Tumor Vol. Mean” value [2] was 0.187 cm^3. The “Tumor Vol. Median” value [2] was 0.19 cm^3, the “RTV Mean” value [3] was 3.3 and the “RTV Median” value [3] was 3.4. The T/C [3] was 75.1%, the “Tumor Vol. Mean” value [3] was 0.373 cm^3 and the “Tumor Vol. Median” value [3] was 0.412 cm^3. The “RTV Mean” value [4] was 4.2, the “RTV Median” value [4] was 4.3 and the T/C [4] was 75.3%. The “Tumor Vol. Mean” value [4] was 0.473 cm^3, the “Tumor Vol. Median” value [4] was 0.454 cm^3 and the “RTV Mean” value [5] was 5.7. The “RTV Median” value [5] was 5.6, the T/C [5] was 71% and the “Tumor Vol. Mean” value [5] was 0.643 cm^3. The “Tumor Vol. Median” value [5] was 0.625 cm^3, the “RTV Mean” value [6] was 7.6 and the “RTV Median” value [6] was 8.1. The T/C [6] was 68.2%, the “Tumor Vol. Mean” value [6] was 0.844 cm^3 and the “Tumor Vol. Median” value [6] was 0.808 cm^3. The “RTV Mean” value [7] was 1, the “RTV Median” value [7] was 1 and the T/C [7] was 99.7%. For the same substance, the “Tumor Vol. Mean” value [7] was 0.112 cm^3, the “Tumor Vol. Median” value [7] was 0.099 cm^3 and the “RTV Mean” value [8] was 1.6. The “RTV Median” value [8] was 1.6, the T/C [8] was 85.1% and the “Tumor Vol. Mean” value [8] was 0.18 cm^3. For the same substance, the “Tumor Vol. Median” value [8] was 0.168 cm^3, the “RTV Mean” value [9] was 3.2 and the “RTV Median” value [9] was 3.1. The T/C [9] was 71.9%, the “Tumor Vol. Mean” value [9] was 0.357 cm^3 and the “Tumor Vol. Median” value [9] was 0.376 cm^3. The “RTV Mean” value [10] was 4.3, the “RTV Median” value [10] was 4.1 and the T/C [10] was 75.1%. For the same substance, the “Tumor Vol. Mean” value [10] was 0.472 cm^3, the “Tumor Vol. Median” value [10] was 0.509 cm^3 and the “RTV Mean” value [11] was 6.1. The “RTV Median” value [11] was 5.9, the T/C [11] was 75.3% and the “Tumor Vol. Mean” value [11] was 0.682 cm^3. For the same substance, the “Tumor Vol. Median” value [11] was 0.719 cm^3, the “RTV Mean” value [12] was 8.2 and the “RTV Median” value [12] was 8.2. For the same substance, the T/C [12] was 73.7%, the “Tumor Vol. Mean” value [12] was 0.912 cm^3 and the “Tumor Vol. Median” value [12] was 0.991 cm^3.
